Target: T1, human recombinant GPR65 (Homo sapiens, UniProt Q8IYL9)
T1 construct: host or cells: 1321N1 human astrocytoma cells (1321N1-hrGPR65)
Experiment: Human GPR65 cAMP HTRF antagonist assay
Type: cell-based
Settings: 1321N1-hrGPR65 cells stimulated at assay pH 7.2; suppression of cAMP rise; read-out: hGPR65 IC50
Outline: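 1321N1 astrocytoma cells stably expressing human GPR65, 2,000 per well in KRH with 1 mM IBMX and 200 μM EDTA, preincubated 30 min with compound at RT. Acid stimulation at pH 7.2 for 30 min, pH 7.9 as control. cAMP read by HTRF 665/620 ratio; IC50 from normalised 4-parameter fit.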

T1 sequence (Q8IYL9 whole entry): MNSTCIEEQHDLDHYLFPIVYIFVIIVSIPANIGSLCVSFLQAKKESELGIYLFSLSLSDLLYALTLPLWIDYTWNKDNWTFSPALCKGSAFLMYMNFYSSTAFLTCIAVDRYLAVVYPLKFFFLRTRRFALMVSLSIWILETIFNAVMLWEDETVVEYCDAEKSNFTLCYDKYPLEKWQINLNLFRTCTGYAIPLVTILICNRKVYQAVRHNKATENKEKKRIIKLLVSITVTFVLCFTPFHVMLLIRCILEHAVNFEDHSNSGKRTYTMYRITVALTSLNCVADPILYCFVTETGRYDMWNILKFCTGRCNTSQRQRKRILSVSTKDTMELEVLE

Compound	IC50 [µM]
O=C(Nc1ccc(C(F)(F)F)c(Cl)c1)N1CCc2cc(F)c(F)cc2C1 [Compound 108, N-(3-Chloro-4-(trifluoromethyl)phenyl)-6,7-difluoro-3,4-dihydroisoquinoline-2(1H)-carboxamide]	< 0.5
O=C(Nc1ccc(Cl)c(Cl)c1)N1CCc2cc3nncn3cc2C1 [Compound 109, N-(3,4-Dichlorophenyl)-8,9-dihydro-[1,2,4]triazolo[4,3-b][2,7]naphthyridine-7(6H)-carboxamide]	< 0.5
O=C(Nc1ccc(Cl)c(Cl)c1)N1CCc2cc3nccn3cc2C1 [Compound 110, N-(3,4-Dichlorophenyl)-8,9-dihydroimidazo[1,2-b][2,7]naphthyridine-7(6H)-carboxamide]	> 5
O=C(Nc1ccc(Cl)c(Cl)c1)N1CCc2cc3ncnn3cc2C1 [Compound 111, N-(3,4-Dichlorophenyl)-8,9-dihydro-[1,2,4]triazolo[1,5-b][2,7]naphthyridine-7(6H)-carboxamide]	> 5
O=C(Nc1cc(Cl)c(Cl)cc1F)N1CCc2cc(=O)[nH]cc2C1 [Compound 112, N-(4,5-Dichloro-2-fluorophenyl)-6-oxo-3,4,6,7-tetrahydro-2,7-naphthyridine-2(1H)-carboxamide]	< 0.5
O=C(Nc1ccc(Cl)c(Cl)c1)N1CCc2cc3cncn3cc2C1 [Compound 113, N-(3,4-Dichlorophenyl)-8,9-dihydroimidazo[1,5-b][2,7]naphthyridine-7(6H)-carboxamide]	< 0.5
COC(=O)c1ccc2c(c1)CCN(C(=O)Nc1ccc(Cl)c(Cl)c1)C2 [Compound 114, Methyl 2-((3,4-dichlorophenyl)carbamoyl)-1,2,3,4-tetrahydroisoquinoline-6-carboxylate]	< 0.5
O=C(Nc1ccc(Cl)c(Cl)c1)N1CCc2cn3ccnc3cc2C1 [Compound 115, N-(3,4-Dichlorophenyl)-6,7-dihydroimidazo[1,2-b][2,6]naphthyridine-8(9H)-carboxamide]	> 5
O=C(Nc1ccc(Cl)c(Cl)c1)N1CCc2cn3cnnc3cc2C1 [Compound 116, N-(3,4-Dichlorophenyl)-6,7-dihydro-[1,2,4]triazolo[4,3-b][2,6]naphthyridine-8(9H)-carboxamide]	> 5
O=C(Nc1ccc(Cl)c(Cl)c1)N1CCc2cn3cncc3cc2C1 [Compound 117, N-(3,4-Dichlorophenyl)-6,7-dihydroimidazo[1,5-b][2,6]naphthyridine-8(9H)-carboxamide]	< 0.5
O=C(Nc1ccc(Cl)c(Cl)c1F)N1CCc2cc(=O)[nH]cc2C1 [Compound 118, N-(3,4-Dichloro-2-fluorophenyl)-6-oxo-3,4,6,7-tetrahydro-2,7-naphthyridine-2(1H)-carboxamide]	0.5 to 5
Nc1nccc2c1CCN(C(=O)Nc1ccc(Cl)c(Cl)c1)C2 [Compound 119, 5-Amino-N-(3,4-dichlorophenyl)-3,4-dihydro-2,6-naphthyridine-2(1H)-carboxamide]	> 5
O=C(Nc1ccc(Cl)c(Cl)c1)N1CCc2c(ccnc2F)C1 [Compound 120, N-(3,4-Dichlorophenyl)-5-fluoro-3,4-dihydro-2,6-naphthyridine-2(1H)-carboxamide]	< 0.5
O=C(Nc1ccc(Cl)c(Cl)c1)N1CCc2cn3ncnc3cc2C1 [Compound 121, N-(3,4-Dichlorophenyl)-6,7-dihydro-[1,2,4]triazolo[1,5-b][2,6]naphthyridine-8(9H)-carboxamide]	> 5
Nc1ccc2c(n1)CCN(C(=O)Nc1ccc(Cl)c(Cl)c1)C2 [Compound 122, 2-Amino-N-(3,4-dichlorophenyl)-7,8-dihydro-1,6-naphthyridine-6(5H)-carboxamide]	> 5
O=C(Nc1ccc(Cl)c(Cl)c1)N1CCc2nc(F)ccc2C1 [Compound 123, N-(3,4-Dichlorophenyl)-2-fluoro-7,8-dihydro-1,6-naphthyridine-6(5H)-carboxamide]	< 0.5
CS(=O)(=O)c1ccc2c(c1)CCN(C(=O)Nc1ccc(C(F)(F)F)c(Cl)c1)C2 [Compound 124, N-(3-Chloro-4-(trifluoromethyl)phenyl)-6-(methylsulfonyl)-3,4-dihydroisoquinoline-2(1H)-carboxamide]	> 5

Compound	IC50 [µM]
CS(=O)(=O)c1ccc2c(c1)CCN(C(=O)Nc1ccc(Cl)c(Cl)c1)C2 [Compound 125, N-(3,4-Dichlorophenyl)-6-(methylsulfonyl)-3,4-dihydroisoquinoline-2(1H)-carboxamide]	> 5
O=C(Nc1ccc(Cl)c(Cl)c1)N1CCc2cc(-c3cccnc3F)ccc2C1 [Compound 126, N-(3,4-Dichlorophenyl)-6-(2-fluoropyridin-3-yl)-3,4-dihydroisoquinoline-2(1H)-carboxamide]	0.5 to 5
O=C(Nc1ccc(Cl)c(Cl)c1)N1CCc2cc(-c3cccs3)ccc2C1 [Compound 127, N-(3,4-Dichlorophenyl)-6-(thiophen-2-yl)-3,4-dihydroisoquinoline-2(1H)-carboxamide]	> 5
O=C(Nc1ccc(Cl)c(Cl)c1)N1CCc2cc(-c3ccsc3)ccc2C1 [Compound 128, N-(3,4-Dichlorophenyl)-6-(thiophen-3-yl)-3,4-dihydroisoquinoline-2(1H)-carboxamide]	> 5
COC(=O)c1cc2c(cn1)CN(C(=O)Nc1ccc(C(F)(F)F)c(Cl)c1)CC2 [Compound 129, Methyl 7-((3-chloro-4-(trifluoromethyl)phenyl)carbamoyl)-5,6,7,8-tetrahydro-2,7-naphthyridine-3-carboxylate]	0.5 to 5
O=C(Nc1cc(Cl)c(Cl)cc1C(F)(F)F)N1CCc2cc(=O)[nH]cc2C1 [Compound 130, N-(4,5-Dichloro-2-(trifluoromethyl)phenyl)-6-oxo-3,4,6,7-tetrahydro-2,7-naphthyridine-2(1H)-carboxamide]	> 5
COC(=O)c1ccc2c(c1)CN(C(=O)Nc1ccc(Cl)c(Cl)c1)CC2 [Compound 131, Methyl 2-((3,4-dichlorophenyl)carbamoyl)-1,2,3,4-tetrahydroisoquinoline-7-carboxylate]	0.5 to 5
N#Cc1cccc2c1CN(C(=O)Nc1ccc(C(F)(F)F)c(Cl)c1)CC2 [Compound 132, N-(3-Chloro-4-(trifluoromethyl)phenyl)-8-cyano-3,4-dihydroisoquinoline-2(1H)-carboxamide]	0.5 to 5
COc1cccc2c1CCN(C(=O)Nc1ccc(Cl)c(C(F)(F)F)c1)C2 [Compound 133, N-(4-Chloro-3-(trifluoromethyl)phenyl)-5-methoxy-3,4-dihydroisoquinoline-2(1H)-carboxamide]	0.5 to 5
COc1cccc2c1CCN(C(=O)Nc1ccc(C(F)(F)F)c(Cl)c1)C2 [Compound 134, N-(3-Chloro-4-(trifluoromethyl)phenyl)-5-methoxy-3,4-dihydroisoquinoline-2(1H)-carboxamide]	0.5 to 5
Cc1ccc2c(c1)CCN(C(=O)Nc1ccc(Cl)c(Cl)c1)C2 [Compound 135, N-(3,4-Dichlorophenyl)-6-methyl-3,4-dihydroisoquinoline-2(1H)-carboxamide]	0.5 to 5
Cc1ccc2c(c1)CCN(C(=O)Nc1ccc(C(F)(F)F)c(Cl)c1)C2 [Compound 136, N-(3-Chloro-4-(trifluoromethyl)phenyl)-6-methyl-3,4-dihydroisoquinoline-2(1H)-carboxamide]	0.5 to 5
N#Cc1cccc2c1CCN(C(=O)Nc1ccc(Cl)c(C(F)(F)F)c1)C2 [Compound 137, N-(4-Chloro-3-(trifluoromethyl)phenyl)-5-cyano-3,4-dihydroisoquinoline-2(1H)-carboxamide]	0.5 to 5
O=C(Nc1ccc(Cl)c(Cl)c1)N1CCc2ccc(Cl)cc2C1 [Compound 138, 7-Chloro-N-(3,4-dichlorophenyl)-3,4-dihydroisoquinoline-2(1H)-carboxamide]	0.5 to 5
O=C(Nc1ccc(Cl)c(Cl)c1)N1CCc2cccc(Cl)c2C1 [Compound 139, 8-Chloro-N-(3,4-dichlorophenyl)-3,4-dihydroisoquinoline-2(1H)-carboxamide]	0.5 to 5
Cc1noc(-c2ccc3c(c2)CCN(C(=O)Nc2ccc(Cl)c(Cl)c2)C3)n1 [Compound 140, N-(3,4-Dichlorophenyl)-6-(3-methyl-1,2,4-oxadiazol-5-yl)-3,4-dihydroisoquinoline-2(1H)-carboxamide]	< 0.5
